According to patent US20240238242A1, “EGCG buccal tablet and use thereof” (priority 2023, published 2024):
Several values for one entry are separate records, joined by “and”; a condition that tells them apart may be missing. Equal values may be shown once. Read-outs that look alike come from different tables or passages of the source.

Tested on: Influenza A virus neuraminidase inhibitor-resistant strain (ZX-1109)
Format: cell-based

O=C(O[C@@H]1Cc2c(O)cc(O)cc2O[C@@H]1c1cc(O)c(O)c(O)c1)c1cc(O)c(O)c(O)c1 [EGCG, Epigallocatechin gallate]
CPE test per cell well (0.2 mM EGCG + ZX1109 virus, 1 minute, second experiment, dilution factor 10^1, wells 1-10): + | CPE test per cell well (0.2 mM EGCG + ZX1109 virus, 1 minute, second experiment, dilution factor 10^2, wells 1-10): + | CPE test per cell well (0.2 mM EGCG + ZX1109 virus, 1 minute, second experiment, dilution factor 10^3, wells 1-10): + | CPE test per cell well (0.2 mM EGCG + ZX1109 virus, 1 minute, second experiment, dilution factor 10^4, wells 1-10): + | CPE test per cell well (0.2 mM EGCG + ZX1109 virus, 1 minute, second experiment, dilution factor 10^5, wells 1-10): + and − | CPE test per cell well (0.2 mM EGCG + ZX1109 virus, 1 minute, second experiment, dilution factor 10^6, wells 1-10): − | CPE test per cell well (0.2 mM EGCG + ZX1109 virus, 1 minute, second experiment, dilution factor 10^7, wells 1-10): − | CPE test per cell well (0.2 mM EGCG + ZX1109 virus, 1 minute, second experiment, dilution factor 10^8, wells 1-10): − | CPE test per cell well (0.2 mM EGCG + ZX-1109 virus, 1 minute, first experiment, dilution factor 10^1, wells 1-10): + | CPE test per cell well (0.2 mM EGCG + ZX-1109 virus, 1 minute, first experiment, dilution factor 10^2, wells 1-10): + | CPE test per cell well (0.2 mM EGCG + ZX-1109 virus, 1 minute, first experiment, dilution factor 10^3, wells 1-10): + | CPE test per cell well (0.2 mM EGCG + ZX-1109 virus, 1 minute, first experiment, dilution factor 10^4, wells 1-10): + | CPE test per cell well (0.2 mM EGCG + ZX-1109 virus, 1 minute, first experiment, dilution factor 10^5, wells 1-10): + and − | CPE test per cell well (0.2 mM EGCG + ZX-1109 virus, 1 minute, first experiment, dilution factor 10^6, wells 1-10): + and − | CPE test per cell well (0.2 mM EGCG + ZX-1109 virus, 1 minute, first experiment, dilution factor 10^7, wells 1-10): − | CPE test per cell well (0.2 mM EGCG + ZX-1109 virus, 1 minute, first experiment, dilution factor 10^8, wells 1-10): − | CPE test (virus replication in the cell wells) (0.2 mM EGCG + ZX-1109 virus, 1 minute, third experiment, dilution factor 10^1, wells 1-10): + | CPE test (virus replication in the cell wells) (0.2 mM EGCG + ZX-1109 virus, 1 minute, third experiment, dilution factor 10^2, wells 1-10): + | CPE test (virus replication in the cell wells) (0.2 mM EGCG + ZX-1109 virus, 1 minute, third experiment, dilution factor 10^3, wells 1-10): + | CPE test (virus replication in the cell wells) (0.2 mM EGCG + ZX-1109 virus, 1 minute, third experiment, dilution factor 10^4, wells 1-10): + | CPE test (virus replication in the cell wells) (0.2 mM EGCG + ZX-1109 virus, 1 minute, third experiment, dilution factor 10^5, wells 1-10): − and + | CPE test (virus replication in the cell wells) (0.2 mM EGCG + ZX-1109 virus, 1 minute, third experiment, dilution factor 10^6, wells 1-10): + and − | CPE test (virus replication in the cell wells) (0.2 mM EGCG + ZX-1109 virus, 1 minute, third experiment, dilution factor 10^7, wells 1-10): − | CPE test (virus replication in the cell wells) (0.2 mM EGCG + ZX-1109 virus, 1 minute, third experiment, dilution factor 10^8, wells 1-10): − | CPE test (virus replication in the cell wells) (0.2 mM EGCG + ZX-1109 virus, 5 minute, first experiment, dilution factor 10^1, wells 1-10): + | CPE test (virus replication in the cell wells) (0.2 mM EGCG + ZX-1109 virus, 5 minute, first experiment, dilution factor 10^2, wells 1-10): + | CPE test (virus replication in the cell wells) (0.2 mM EGCG + ZX-1109 virus, 5 minute, first experiment, dilution factor 10^3, wells 1-10): + | CPE test (virus replication in the cell wells) (0.2 mM EGCG + ZX-1109 virus, 5 minute, first experiment, dilution factor 10^4, wells 1-10): + | CPE test (virus replication in the cell wells) (0.2 mM EGCG + ZX-1109 virus, 5 minute, first experiment, dilution factor 10^5, wells 1-10): + | CPE test (virus replication in the cell wells) (0.2 mM EGCG + ZX-1109 virus, 5 minute, first experiment, dilution factor 10^6, wells 1-10): − and + | CPE test (virus replication in the cell wells) (0.2 mM EGCG + ZX-1109 virus, 5 minute, first experiment, dilution factor 10^7, wells 1-10): − and + | CPE test (virus replication in the cell wells) (0.2 mM EGCG + ZX-1109 virus, 5 minute, first experiment, dilution factor 10^8, wells 1-10): − and + | CPE test (virus replication in the cell wells) (0.2 mM EGCG + ZX-1109 virus, 5 minute, second experiment, dilution factor 10^1, wells 1-10): + | CPE test (virus replication in the cell wells) (0.2 mM EGCG + ZX-1109 virus, 5 minute, second experiment, dilution factor 10^2, wells 1-10): + | CPE test (virus replication in the cell wells) (0.2 mM EGCG + ZX-1109 virus, 5 minute, second experiment, dilution factor 10^3, wells 1-10): + | CPE test (virus replication in the cell wells) (0.2 mM EGCG + ZX-1109 virus, 5 minute, second experiment, dilution factor 10^4, wells 1-10): + | CPE test (virus replication in the cell wells) (0.2 mM EGCG + ZX-1109 virus, 5 minute, second experiment, dilution factor 10^5, wells 1-10): + and − | CPE test (virus replication in the cell wells) (0.2 mM EGCG + ZX-1109 virus, 5 minute, second experiment, dilution factor 10^6, wells 1-10): − and + | CPE test (virus replication in the cell wells) (0.2 mM EGCG + ZX-1109 virus, 5 minute, second experiment, dilution factor 10^7, wells 1-10): − | CPE test per cell well (0.2 mM EGCG + ZX-1109 virus, 5 minute, third experiment, dilution factor 10^1, wells 1-10): + | CPE test per cell well (0.2 mM EGCG + ZX-1109 virus, 5 minute, third experiment, dilution factor 10^2, wells 1-10): + | CPE test per cell well (0.2 mM EGCG + ZX-1109 virus, 5 minute, third experiment, dilution factor 10^3, wells 1-10): + | CPE test per cell well (0.2 mM EGCG + ZX-1109 virus, 5 minute, third experiment, dilution factor 10^4, wells 1-10): + | CPE test per cell well (0.2 mM EGCG + ZX-1109 virus, 5 minute, third experiment, dilution factor 10^5, wells 1-10): + | CPE test per cell well (0.2 mM EGCG + ZX-1109 virus, 5 minute, third experiment, dilution factor 10^6, wells 1-10): + and − | CPE test per cell well (0.2 mM EGCG + ZX-1109 virus, 5 minute, third experiment, dilution factor 10^7, wells 1-10): + and − | CPE test per cell well (0.2 mM EGCG + ZX-1109 virus, 5 minute, third experiment, dilution factor 10^8, wells 1-10): − and + | average inactivation efficiency against virus (0.2 mM EGCG, ZX1109 virus, 5 minutes, three experiments): 92.16% | residual virus titer of EGCG+virus group (Karber method) (0.2 mM EGCG, ZX-1109 virus, 5 minutes): 10^7 TCID50/50 μL | inactivation efficiency against the virus (0.2 mM EGCG, ZX-1109 virus, 5 minutes, single experiment): 98.42% and 98.00% and 80.05% | CPE test per cell well (1 mM EGCG + ZX1109 virus, 1 minute, second experiment, dilution factor 10^1, wells 1-10): + | CPE test per cell well (1 mM EGCG + ZX1109 virus, 1 minute, second experiment, dilution factor 10^2, wells 1-10): + | CPE test per cell well (1 mM EGCG + ZX1109 virus, 1 minute, second experiment, dilution factor 10^3, wells 1-10): + | CPE test per cell well (1 mM EGCG + ZX1109 virus, 1 minute, second experiment, dilution factor 10^4, wells 1-10): + | CPE test per cell well (1 mM EGCG + ZX1109 virus, 1 minute, second experiment, dilution factor 10^5, wells 1-10): − and + | CPE test per cell well (1 mM EGCG + ZX1109 virus, 1 minute, second experiment, dilution factor 10^6, wells 1-10): − | CPE test per cell well (1 mM EGCG + ZX1109 virus, 1 minute, second experiment, dilution factor 10^7, wells 1-10): − | CPE test per cell well (1 mM EGCG + ZX1109 virus, 1 minute, second experiment, dilution factor 10^8, wells 1-10): − | CPE test per cell well (1 mM EGCG + ZX-1109 virus, 1 minute, first experiment, dilution factor 10^1, wells 1-10): + | CPE test per cell well (1 mM EGCG + ZX-1109 virus, 1 minute, first experiment, dilution factor 10^2, wells 1-10): + | CPE test per cell well (1 mM EGCG + ZX-1109 virus, 1 minute, first experiment, dilution factor 10^3, wells 1-10): + | CPE test per cell well (1 mM EGCG + ZX-1109 virus, 1 minute, first experiment, dilution factor 10^4, wells 1-10): + | CPE test per cell well (1 mM EGCG + ZX-1109 virus, 1 minute, first experiment, dilution factor 10^5, wells 1-10): + and − | CPE test per cell well (1 mM EGCG + ZX-1109 virus, 1 minute, first experiment, dilution factor 10^6, wells 1-10): − | CPE test per cell well (1 mM EGCG + ZX-1109 virus, 1 minute, first experiment, dilution factor 10^7, wells 1-10): − | CPE test per cell well (1 mM EGCG + ZX-1109 virus, 1 minute, first experiment, dilution factor 10^8, wells 1-10): − | CPE test (virus replication in the cell wells) (1 mM EGCG + ZX-1109 virus, 1 minute, third experiment, dilution factor 10^1, wells 1-10): + | CPE test (virus replication in the cell wells) (1 mM EGCG + ZX-1109 virus, 1 minute, third experiment, dilution factor 10^2, wells 1-10): + | CPE test (virus replication in the cell wells) (1 mM EGCG + ZX-1109 virus, 1 minute, third experiment, dilution factor 10^3, wells 1-10): + | CPE test (virus replication in the cell wells) (1 mM EGCG + ZX-1109 virus, 1 minute, third experiment, dilution factor 10^4, wells 1-10): + | CPE test (virus replication in the cell wells) (1 mM EGCG + ZX-1109 virus, 1 minute, third experiment, dilution factor 10^5, wells 1-10): + and −
